This assay concerns P388 leukemia ip, CD2F1 mice, survival T/C. Nature of the assay: NCI In Vivo Anticancer Drug Screen. Data for tumor model P388 Leukemia (intraperitoneal) in CD2F1 (CDF1) mice. As to conditions: endpoint: median survival time, higher = longer survival. Put shortly:
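Mice carrying the transplanted tumor received test compound or vehicle. Survival was recorded in each group, and the value is the treated-group measurement divided by that of the vehicle-treated control group.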

Where [1] appears, read: dose: 50.0 mg/kg/injection, schedule: Q01DX009 (ip), vehicle: Klucel (hydroxypropylcellulose) (HPC).
[2] abbreviates: dose: 100.0 mg/kg/injection, schedule: Q01DX009 (ip), vehicle: Klucel (hydroxypropylcellulose) (HPC).
The mark [3] stands for this setting: dose: 200.0 mg/kg/injection, schedule: Q01DX009 (ip), vehicle: Klucel (hydroxypropylcellulose) (HPC).
The mark [4] stands for this setting: dose: 50.0 mg/kg/injection, schedule: Q01DX009 (ip), vehicle: saline with Tween-80.
Setting [5] is: dose: 100.0 mg/kg/injection, schedule: Q01DX009 (ip), vehicle: saline with Tween-80.
Where [6] appears, read: dose: 200.0 mg/kg/injection, schedule: Q01DX009 (ip), vehicle: saline with Tween-80.
Where [7] appears, read: dose: 50.0 mg/kg/injection, schedule: Q01DX005 (ip), vehicle: saline with Tween-80.
Where [8] appears, read: dose: 100.0 mg/kg/injection, schedule: Q01DX005 (ip), vehicle: saline with Tween-80.
Setting [9] is: dose: 200.0 mg/kg/injection, schedule: Q01DX005 (ip), vehicle: saline with Tween-80.
The mark [10] stands for this setting: dose: 60.0 mg/kg/injection, schedule: Q01DX005 (ip), vehicle: saline with Tween-80.
Setting [11] is: dose: 120.0 mg/kg/injection, schedule: Q01DX005 (ip), vehicle: saline with Tween-80.
[12] abbreviates: dose: 240.0 mg/kg/injection, schedule: Q01DX005 (ip), vehicle: saline with Tween-80.
Setting [13] is: dose: 50.0 mg/kg/injection, schedule: Q01DX005 (ip), vehicle: Klucel (hydroxypropylcellulose) (HPC).
Where [14] appears, read: dose: 100.0 mg/kg/injection, schedule: Q01DX005 (ip), vehicle: Klucel (hydroxypropylcellulose) (HPC).
Setting [15] is: dose: 200.0 mg/kg/injection, schedule: Q01DX005 (ip), vehicle: Klucel (hydroxypropylcellulose) (HPC).
Where [16] appears, read: dose: 60.0 mg/kg/injection, schedule: Q01DX005 (ip), vehicle: Klucel (hydroxypropylcellulose) (HPC).
Where [17] appears, read: dose: 120.0 mg/kg/injection, schedule: Q01DX005 (ip), vehicle: Klucel (hydroxypropylcellulose) (HPC).
[18] abbreviates: dose: 240.0 mg/kg/injection, schedule: Q01DX005 (ip), vehicle: Klucel (hydroxypropylcellulose) (HPC).

Several values for one entry are separate records, joined by “and”; a condition that tells them apart may be missing. Identical values can stand only once. Inconclusive results and toxic doses are left out.

For `COc1ccc(CCN2C(=O)C(=O)N(c3ccc(Cl)c(Cl)c3)C2=O)cc1OC`, the T/C under setting [1] is 102 % of control, the T/C under setting [2] is 97 % of control and the T/C under setting [3] is 103 % of control.
Turning to `O=C(CF)c1ccc(Cl)cc1`, the T/C under setting [4] was 99 % of control, the T/C under setting [5] was 106 % of control and the T/C under setting [6] was 111 % of control.
As to `C=C1C(=O)OC2/C=C(\C)CC/C=C(\C)C(OC(C)=O)C(OC(=O)C3(C)OC3C)C12O` (configuration not stated), the T/C runs as follows: (dose: 12.5 mg/kg/injection, schedule: Q01DX009 (ip), vehicle: Klucel (hydroxypropylcellulose) (HPC)) 105 % of control; (dose: 25.0 mg/kg/injection, schedule: Q01DX009 (ip), vehicle: Klucel (hydroxypropylcellulose) (HPC)) 115 % of control; under setting [1], 115 % of control; under setting [2], 94 % of control.
On to `O=C1CN(CCCCl)CC(=O)N2Cc3ccccc3CN12`, for which the T/C by setting is: under setting [7], 106 % of control; under setting [8], 101 % of control; under setting [9], 99 % of control.
For the compound `[CH3][Sn]([CH3])([Cl])[c]1cc[c]([Sn]([CH3])([CH3])[Cl])cc1`, the T/C is 122 % of control (dose: 0.19 mg/kg/injection, schedule: Q01DX005 (ip), vehicle: suspension in saline); 115 % of control (dose: 0.39 mg/kg/injection, schedule: Q01DX005 (ip), vehicle: suspension in saline); 160 % of control (dose: 0.79 mg/kg/injection, schedule: Q01DX005 (ip), vehicle: saline); 154 % of control (dose: 3.12 mg/kg/injection, schedule: Q01DX005 (ip), vehicle: suspension in saline).
For the compound `CN(CCC1(C)C(=O)CCc2ccccc21)Cc1ccccc1` (configuration not stated), the T/C (dose: 12.5 mg/kg/injection, schedule: Q01DX005 (ip), vehicle: saline with Tween-80) was 102 % of control; the T/C (dose: 25.0 mg/kg/injection, schedule: Q01DX005 (ip), vehicle: saline with Tween-80) was 96 % of control; the T/C under setting [7] was 100 % of control and 96 % of control.
As to `O=C(OCc1ccccc1)n1nnc2ccccc21`, the T/C is, setting by setting: under setting [10], 113 % of control; under setting [11], 105 % of control; under setting [12], 111 % of control.
For `O=P(c1cccs1)(c1cccs1)c1cccs1`, the T/C is 96 % of control under setting [1], 92 % of control under setting [2] and 101 % of control under setting [3].
Take `CC(NCCCCCCNC(C)C(=O)O)C(=O)O` (configuration not stated): the T/C is 105 % of control under setting [7], 100 % of control under setting [8] and 117 % of control under setting [9].
Take `Cc1nc2cc3ccccc3cc2nc1C`: the T/C runs as follows: under setting [13], 100 % of control; under setting [14], 99 % of control; under setting [15], 100 % of control.
`COC(=O)/C=C\C1(CCC(=O)OC)N=C(c2ccccc2)OC1=O` (configuration not stated): the T/C under setting [7] was 101 % of control, the T/C under setting [8] is 92 % of control and the T/C under setting [9] is 96 % of control.
Turning to `Cc1c(C)[n+](=O)c2ccc(/C=[N+](/[O-])CCO)cc2n1[O-]`, the T/C was 99 % of control under setting [1], 99 % of control under setting [2] and 107 % of control under setting [3].
`CC1(C(Cl)(Cl)Cl)C=CC(=O)C=C1`: the T/C by setting is: under setting [4], 99 % of control; under setting [5], 107 % of control; under setting [6], 99 % of control.
Turning to `O=C(CCC(=O)Nc1cccc([N+](=O)[O-])c1)CC(=O)c1ccc(Cl)cc1`, the T/C by setting is: under setting [10], 96 % of control; under setting [11], 105 % of control; under setting [12], 96 % of control.
For the compound `COCCCNP(=S)(N1CC1)N1CC1`, the T/C reads like this: (dose: 3.0 mg/kg/injection, schedule: Q04DX003 (ip), vehicle: saline) 110 % of control; (dose: 6.0 mg/kg/injection, schedule: Q04DX003 (ip), vehicle: saline) 115 % of control; (dose: 12.5 mg/kg/injection, schedule: Q01DX009 (ip), vehicle: saline) 170 % of control; (dose: 25.0 mg/kg/injection, schedule: Q04DX003 (ip), vehicle: saline with Tween-80) 186 % of control.
In the case of `CNC(=O)Oc1[nH]c(=O)ncc1I`, the T/C by setting is: (dose: 50.0 mg/kg/injection, schedule: Q04DX002 (ip), vehicle: saline with Tween-80) 100 % of control; (dose: 100.0 mg/kg/injection, schedule: Q04DX002 (ip), vehicle: saline with Tween-80) 108 % of control and 109 % of control and 110 % of control; (dose: 200.0 mg/kg/injection, schedule: Q04DX002 (ip), vehicle: saline with Tween-80) 105 % of control and 116 % of control.
As for `OC(CO/N=C1/c2ccccc2CCC1Cc1ccccc1)CN1CCOCC1` (configuration not stated), the T/C is, setting by setting: under setting [10], 108 % of control; under setting [11], 116 % of control; under setting [12], 114 % of control.
On to `CSCC(N)CO` (configuration not stated), for which the T/C by setting is: (dose: 50.0 mg/kg/injection, schedule: Q01DX009 (ip), vehicle: saline) 110 % of control; (dose: 100.0 mg/kg/injection, schedule: Q01DX009 (ip), vehicle: saline) 105 % of control; (dose: 200.0 mg/kg/injection, schedule: Q01DX009 (ip), vehicle: saline) 101 % of control.
As for `CCOC(=O)CC(=O)NCCc1cccc(OC)c1OC`, the T/C (dose: 100.0 mg/kg/injection, schedule: Q04DX003 (ip), vehicle: other) was 100 % of control; the T/C (dose: 200.0 mg/kg/injection, schedule: Q04DX003 (ip), vehicle: other) is 100 % of control; the T/C (dose: 400.0 mg/kg/injection, schedule: Q04DX003 (ip), vehicle: other) was 105 % of control.
In the case of `CCCCC1(O)C(=O)N(c2ccccc2)N(c2ccccc2)C1=O`, the T/C under setting [16] is 102 % of control, the T/C under setting [17] is 102 % of control and the T/C under setting [18] is 96 % of control.
As to `C=C1COC(=O)[C@@]12CC[C@@]1(C)[C@@H](CC[C@@H]3[C@@H]1CC[C@]1(C)C([C@H](C)CCCC(C)C)CC[C@@H]31)C2` (some centres not stated), the T/C reads like this: (dose: 100.0 mg/kg/injection, schedule: Q01DX001 (ip), vehicle: saline with Tween-80) 96 % of control; (dose: 200.0 mg/kg/injection, schedule: Q01DX001 (ip), vehicle: saline with Tween-80) 93 % of control; (dose: 400.0 mg/kg/injection, schedule: Q01DX001 (ip), vehicle: saline with Tween-80) 91 % of control.
As for `CCCCCCCCCCCC(=O)c1c(O)cc(C)oc1=O`, the T/C is 100 % of control under setting [16], 98 % of control under setting [17] and 105 % of control under setting [18].
As for `O=C(C(Cl)Cl)N1CCN(C(=O)C(Cl)Cl)CC1`, the T/C is 102 % of control under setting [13], 110 % of control under setting [14] and 105 % of control under setting [15].

The values are drawn from PubChem BioAssay AID330 (DTP/NCI, 2004).
